Reference: publication PMC10753557, “Design and Evaluation of Synthesized Pyrrole Derivatives as Dual COX-1 and COX-2 Inhibitors Using FB-QSAR Approach” (ACS Omega, 2023)

What was measured:
[1] = target: T1, COX-1 (Ovis aries, UniProt P05979); experiment: COX-1 fluorometric inhibitor screening kit (BioVision); format: biochemical
T1 construct: purchased
T1 sequence (P05979 25-600): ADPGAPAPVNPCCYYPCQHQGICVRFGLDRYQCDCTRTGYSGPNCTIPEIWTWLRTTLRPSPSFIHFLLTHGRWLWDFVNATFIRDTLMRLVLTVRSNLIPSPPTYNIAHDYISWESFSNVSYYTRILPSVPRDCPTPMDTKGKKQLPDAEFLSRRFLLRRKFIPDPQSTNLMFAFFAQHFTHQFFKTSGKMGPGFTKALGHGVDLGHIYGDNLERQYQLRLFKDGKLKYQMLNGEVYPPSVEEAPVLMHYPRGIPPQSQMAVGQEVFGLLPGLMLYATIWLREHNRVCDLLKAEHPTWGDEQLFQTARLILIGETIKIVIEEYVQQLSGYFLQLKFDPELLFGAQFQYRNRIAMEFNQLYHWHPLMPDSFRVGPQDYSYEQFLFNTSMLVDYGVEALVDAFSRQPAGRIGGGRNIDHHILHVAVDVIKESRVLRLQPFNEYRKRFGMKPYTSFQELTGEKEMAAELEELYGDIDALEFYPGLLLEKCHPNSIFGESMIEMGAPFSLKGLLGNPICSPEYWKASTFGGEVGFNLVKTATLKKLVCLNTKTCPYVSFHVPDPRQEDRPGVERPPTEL
Procedure: (§1) To conduct the inhibition assay, the kit components were prepared as follows: The COX-1/COX-2 enzyme solutions were created by reconstituting the lyophilized powder with 110 μL of ddH2O. A diluted COX cofactor was formed by combining a COX assay buffer (398 μL) and a COX cofactor (2 μL). The arachidonic acid/NaOH solution was diluted with 5 μL of arachidonic acid, 5 μL of NaOH, and 90 μL of ddH2O. These solutions were combined to generate the reaction mixture (80 μL) for each well, consisting of the COX assay buffer (76 μL), the COX probe (1 μL), the diluted COX cofactor (2 μL), and the COX-1/COX-2 enzyme solution (1 μL). Test compounds (10 μL) were added, followed by incubation for 5–10 min at 25 °C. To […] the reaction, 10 μL of diluted arachidonic acid/NaOH solution was added. […] The assay was performed in quadruplicate with a blank and control, testing all inhibitor concentrations. The mean ± standard deviation (SD) of the percentage inhibition results were calculated, and IC50 values were determined using GraphPad PRISM software (version 5.0) by plotting the percentage inhibition against the log concentration. Additionally, the selectivity index (SI) was calculated by dividing IC50(COX-1) by IC50(COX-2).

[2] = target: T2, COX-2 (Homo sapiens, UniProt P35354); experiment: COX-2 fluorometric inhibitor screening kit (BioVision); format: biochemical
T2 construct: purchased BioVision
T2 sequence (P35354 18-604): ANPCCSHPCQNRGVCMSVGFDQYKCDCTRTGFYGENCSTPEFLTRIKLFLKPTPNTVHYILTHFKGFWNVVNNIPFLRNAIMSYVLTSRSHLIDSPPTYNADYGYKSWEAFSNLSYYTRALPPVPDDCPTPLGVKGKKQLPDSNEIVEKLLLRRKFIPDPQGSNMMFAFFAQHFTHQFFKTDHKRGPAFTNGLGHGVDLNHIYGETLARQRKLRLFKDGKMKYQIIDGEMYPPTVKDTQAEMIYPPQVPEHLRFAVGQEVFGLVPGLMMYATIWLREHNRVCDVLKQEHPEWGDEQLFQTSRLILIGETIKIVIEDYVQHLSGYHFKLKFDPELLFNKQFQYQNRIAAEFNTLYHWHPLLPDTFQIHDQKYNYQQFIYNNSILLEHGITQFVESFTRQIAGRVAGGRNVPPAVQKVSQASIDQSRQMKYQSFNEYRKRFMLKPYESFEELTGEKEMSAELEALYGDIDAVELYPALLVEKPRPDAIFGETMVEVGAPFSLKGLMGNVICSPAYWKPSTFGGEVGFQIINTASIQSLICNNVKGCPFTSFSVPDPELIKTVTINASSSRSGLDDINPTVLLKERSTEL
Procedure: as §1

[3] = 1 μM compound, mean ± SD, quadruplicate
[4] = 10 μM compound, mean ± SD, quadruplicate

Row | COX-1% Inhibition 1 μM [1, 3] | COX-1% Inhibition 10 μM [1, 4] | experimental activity on COX-1 (pIC50) ([1]; BioVision's kit protocol) | IC50 ([1]; fluorometric kit) | COX-2% Inhibition 1 μM [2, 3] | COX-2% Inhibition 10 μM [2, 4] | experimental activity on COX-2 (pIC50) ([2]; BioVision's kit protocol) | COX subtype selectivity ([2]; COX-1 vs COX-2, classification in conclusions) | IC50 ([2]; fluorometric kit) | inhibition at 1 µM ([2]; read-out: COX-2% Inhibition 1 μM) | inhibition at 10 µM ([2]; read-out: COX-2% Inhibition 10 μM) | SMILES
1 | 84.517 ± 2.036% | 92.366 ± 2.731% | 6.93 | 117 ± 5 nM | 83.033 ± 1.878% | 90.967 ± 2.022% | 6.7258 | nonselective inhibitors | 188 ± 8 nM | – | – | CCOC(=O)c1cc(-c2c(OC)cccc2OC)n(CC(=O)O)c1C [Compound 4g]
2 | – | – | – | – | – | – | – | – | – | 89.6 ± 1.05% | 97.8 ± 1.21% | CS(=O)(=O)Nc1ccc([N+](=O)[O-])cc1Oc1ccccc1 [nimesulide, reference compound]
